According to ChEMBL document CHEMBL4342446, “Isopimarane Diterpenoids from the Rhizomes of Kaempferia marginata and Their Potential Anti-inflammatory Activities” (J Nat Prod, 2020):

Experiments:
RAW264.7 [1] = assay: Anti-inflammatory activity in mouse RAW264.7 cells assessed as inhibition of lipopolysaccharide-induced nitric oxide production; assay type: functional, cell-based
RAW264.7 [2] = assay: Cytotoxicity against mouse RAW264.7 cells; assay type: cell-based

IC50 (RAW264.7 [1]) [µM] | Compound | Activity (RAW264.7 [2])
> 50 | C=C[C@]1(C)C=C2C(=O)C[C@H]3C(C)(C)CC[C@H](O)[C@]3(C)[C@H]2CC1 | 
40.3 | C=C[C@]1(C)C=C2CC[C@H]3C(C)(C)C[C@H](O)[C@H](O)[C@]3(C)[C@H]2CC1 | 
50 | C=C[C@]1(C)C=C2CC[C@H]3C(C)(C)CC[C@H](O)[C@]3(C)[C@H]2CC1 | 
> 50 | C=C[C@]1(C)C=C2CC[C@H]3C(C)(C)C[C@H](O)[C@H](OC(C)=O)[C@]3(C)[C@H]2CC1 | 
> 50 | C=C[C@]1(C)C=C2C[C@@H](O)[C@H]3C(C)(C)C[C@H](O)[C@H](O)[C@]3(C)[C@H]2CC1 | 
> 50 | C=C[C@]1(C)C=C2C[C@@H](OC(C)=O)[C@H]3C(C)(C)[C@@H](O)CC(=O)[C@]3(C)[C@H]2[C@@H](O)C1 | 
> 50 | C=C[C@]1(C)C=C2[C@@H](O)C[C@H]3C(C)(C)C[C@H](O)[C@H](O)[C@]3(C)[C@H]2CC1 | 
28.1 | C=C[C@]1(C)C=C2CC[C@H]3C(C)(C)[C@H](O)C[C@H](O)[C@]3(C)[C@H]2[C@H](O)C1 | Non-Toxic
> 50 | C=C[C@]1(C)C=C2C(=O)C[C@H]3C(C)(C)C[C@H](O)C[C@]3(C)[C@H]2CC1 | 
> 50 | C=C[C@]1(C)C=C2CC[C@H]3C(C)(C)[C@@H](O)C[C@H](O)[C@]3(C)[C@H]2[C@H](O)C1 | 
36.7 | C=C[C@]1(C)C=C2CC[C@H]3C(C)(C)CC[C@H](O)[C@]3(C)[C@H]2[C@H](O)C1 | 
> 50 | C=C[C@]1(C)C=C2[C@H](O)C[C@H]3C(C)(C)CC[C@H](O)[C@]3(C)[C@H]2[C@H](O)C1 | 
5.5 | C[C@@H]1C[C@H]2[C@@H]3CCC4=CC(=O)C=C[C@]4(C)[C@@]3(F)[C@@H](O)C[C@]2(C)[C@@]1(O)C(=O)CO [DEXAMETHASONE] | 
